Experimental data as given in patent US20080090863A1, “Pyridine Derivatives and Their Use as Medicaments for Treating Diseases Related to Mch Receptor” (TAISHO PHARMACEUTICAL CO., LTD., priority 2004, published 2008).
Structures can show the parent of a compound that is named as a salt.

biological target: MCH receptor (Homo sapiens, UniProt Q99705); assay: High Throughput Functional Screening: FLIPR/FDSS6000 intracellular Ca2+ assay, antagonist activity against MCH; type: cell-based; parameters: class (percent of control at 10^−7 M or IC50): scale not given here; settings: FLIPR/FDSS, [Ca2+]i evoked by 50 nM MCH; class by percent of control at 10^−7 M or IC50
Source text: Subsequently, a functional based assay was used to confirm the lead hits, referred to as FLIPR™ (the Fluorometric Imaging Plate Reader) and FDSS6000™ (Functional Drug Screening System). This assay utilized a non-endogenous, constitutively active version of the MCH receptor.
The FLIPR and FDSS assays are able to detect intracellular Ca^2+ concentration in cells, which can be utilized to assess receptor activation and determine whether a candidate compound is an, for example, antagonist, inverse agonist or agonist to a Gq-coupled receptor. The concentration of free Ca^2+ in the cytosol of any cell is extremely low, whereas its concentration in the extracellular fluid and endoplasmic reticulum (ER) is very high. Thus, there is a large gradient tending to drive Ca^2+ into the cytosol across both the plasma membrane and ER. The FLIPR™ and FDSS6000™ systems (Molecular Devices Corporation, HAMAMATSU Photonics K.K.) are designed to perform functional cell-based assays, such as the measurement of intracellular calcium for high-throughput screening. The measurement of fluorescent is associated with calcium release upon activation of the Gq-coupled receptors.
Fluorometric Imaging Plate Reader system was used to allow for rapid, kinetic measurements of intracellular fluorescence in 96 well microplates (or 384 well microplates). Simultaneous measurements of fluorescence in all wells can be made by FLIPR or FDSS6000™ every second with high sensitivity and precision. These systems are ideal for measuring cell-based functional assays such as monitoring the intracellular calcium fluxes that occur within seconds after activation of the Gq coupled receptor.
Briefly, the cells are seeded into 96 well at 5.5×10^4 cells/well with complete culture media (Dulbecco's Modified Eagle Medium with 10% fetal bovine serum, 2 mM L-glutamine, 1 mM sodium pyruvate and 0.5 mg/mL G418, pH 7.4) for the assay next day. On the day of assay, the media is removed and the cells are incubated with 100 μl of loading buffer (4 μM Fluo4-AM in complete culture media containing 2.5 mM Probenicid, 0.5 mg/ml and 0.2% bovine serum albumin) in 5% CO2 incubator at 37° C. for 1 hr. The loading buffer is removed, and the cells are washed with wash buffer (Hank's Balanced Salt Solution containing 2.5 mM Probenicid, 20 mM HEPES, 0.5 mg/mL and 0.2% bovine serum albumin, pH 7.4). One hundred fifty μl of wash buffer containing various concentrations of test compound is added to the cells, and the cells are incubated in 5% CO2 incubator at 37° C. for 30 min. Fifty μl of wash buffer containing various concentration of MCH are added to each well, and transient changes in [Ca^2+]i evoked by MCH are monitored using the FLIPR™ or FDSS in 96 well plates at Ex. 488 nm and Em. 530 nm for 290 second. When antagonist activity of compound is tested, 50 nM of MCH is used.
Use of FLIPR™ and FDSS6000™ can be accomplished by following manufacturer's instruction (Molecular Device Corporation and HAMAMATSU Photonics K.K.).

Row | SMILES | class (percent of control at 10^−7 M or IC50)
1 | Cc1cnc(N[C@H]2CC[C@@H](CNC(=O)c3ccc(F)c(Cl)c3)CC2)cc1N(C)C.Cl [Example 32, 3-Chloro-N-[(cis-4-{[4-(dimethylamino)-5-methylpyridin-2-yl]amino}cyclohexyl)methyl]-4-fluorobenzamide hydrochloride] | 2
2 | Cc1ccnc(N[C@H]2CC[C@@H](NC(=O)c3ccc(F)c(Cl)c3)CC2)c1.Cl [Example 35, 3-Chloro-4-fluoro-N-{cis-4-[(4-methylpyridin-2-yl)amino]cyclohexyl}benzamide hydrochloride] | 2
3 | Cc1cnc(N[C@H]2CC[C@@H](NC(=O)c3ccc(F)c(Cl)c3)CC2)cc1N(C)CCc1ccccc1.Cl [Example 49, 3-Chloro-4-fluoro-N-[cis-4-({5-methyl-4-[methyl(2-phenylethyl)amino]pyridin-2-yl}amino)cyclohexyl]benzamide hydrochloride] | 2
4 | Cc1cc(C)c(N[C@H]2CC[C@@H](NC(=O)c3ccc(F)c(Cl)c3)CC2)nc1C.Cl [Example 53, 3-Chloro-4-fluoro-N-{cis-4-[(3,5,6-trimethylpyridin-2-yl)amino]cyclohexyl}benzamide hydrochloride] | 2

same assay, conditions: FLIPR/FDSS, [Ca2+]i evoked by 50 nM MCH; class by percent of control at 10^−7 M or IC50; read-out: class (percent of control at 10^−7 M or IC50)

Row | SMILES | IC50 [nM]
5 | Cc1cc(N[C@H]2CC[C@@H](NC(=O)c3ccc(F)c(Cl)c3)CC2)nc2c1CCC2 [Example 33, 3-Chloro-4-fluoro-N-{cis-4-[(4-methyl-6,7-dihydro-5H-cyclopenta[b]pyridin-2-yl)amino]cyclohexyl}benzamide hydrochloride] | < 50
6 | Cc1cc(N[C@H]2CC[C@@H](NC(=O)c3ccc(F)c(Cl)c3)CC2)nc2c1CCCC2 [Example 34, 3-Chloro-4-fluoro-N-{cis-4-[(4-methyl-5,6,7,8-tetrahydroquinolin-2-yl)amino]cyclohexyl}benzamide hydrochloride] | < 50
7 | CN(C)c1ccnc(N[C@H]2CC[C@@H](NC(=O)c3ccc(F)c(Cl)c3)CC2)c1 [Example 36, 3-Chloro-N-(cis-4-{[4-(dimethylamino)pyridin-2-yl]amino}cyclohexyl)-4-fluorobenzamide hydrochloride] | < 50
8 | CN(C)c1ccnc(N[C@H]2CC[C@@H](NC(=O)c3cc(F)c(F)c(F)c3)CC2)c1 [Example 37, N-(cis-4-{[4-(Dimethylamino)pyridin-2-yl]amino}cyclohexyl)-3,4,5-trifluorobenzamide hydrochloride] | < 50
9 | O=C(N[C@H]1CC[C@@H](Nc2ccc3c(n2)CCCC3)CC1)c1ccc(F)c(Cl)c1 [Example 39, 3-Chloro-4-fluoro-N-[cis-4-(5,6,7,8-tetrahydroquinolin-2-ylamino)cyclohexyl]benzamide hydrochloride] | < 50
10 | O=C(N[C@H]1CC[C@@H](Nc2ccc3c(n2)CCCC3)CC1)c1cc(F)c(F)c(F)c1 [Example 40, 3,4,5-Trifluoro-N-[cis-4-(5,6,7,8-tetrahydroquinolin-2-ylamino)cyclohexyl]benzamide hydrochloride] | < 50
11 | Cc1ccc(N[C@H]2CC[C@@H](NC(=O)c3ccc(F)c(Cl)c3)CC2)nc1C [Example 43, 3-Chloro-N-{cis-4-[(5,6-dimethylpyridin-2-yl)amino]cyclohexyl}-4-fluorobenzamide hydrochloride] | < 50
12 | Cc1cc(N[C@H]2CC[C@@H](NC(=O)c3ccc(F)c(Cl)c3)CC2)nc(C)c1C [Example 50, 3-Chloro-4-fluoro-N-{cis-4-[(4,5,6-trimethylpyridin-2-yl)amino]cyclohexyl}benzamide hydrochloride] | < 50
13 | Cc1cnc(N[C@H]2CC[C@@H](NC(=O)c3ccc(F)c(Cl)c3)CC2)cc1C [Example 51, 3-Chloro-N-{cis-4-[(4,5-dimethylpyridin-2-yl)amino]cyclohexyl}-4-fluorobenzamide hydrochloride] | < 50
14 | Cc1cc(C)nc(N[C@H]2CC[C@@H](NC(=O)c3ccc(F)c(Cl)c3)CC2)c1 [Example 52, 3-Chloro-N-{cis-4-[(4,6-dimethylpyridin-2-yl)amino]cyclohexyl}-4-fluorobenzamide hydrochloride] | < 50
